Laboratory results taken from patent US12280179B2 (Urotronic, Inc., priority 2012, dated 2025).
Each block holds one compound with its values, some of them ahead of it.

Key:
[1] = stability of additives with paclitaxel under ethylene oxide sterilization, heating and aging; settings: additive with paclitaxel; reacted with paclitaxel
[2] = Human clinical study, urethral strictures: paclitaxel in blood, urine, semen; assay type: in vivo
Method: Clinical subjects were evaluated at 14, 30, 90, 180, 365 days, and 2 years after the index procedure. Evaluations included analysis of stricture free rate, uroflowmetry including Qmax, and PVR.

[3] = with the addition of BSA; cited from earlier work
[4] = BPH Preclinical Study 4: tissue pharmacokinetics of paclitaxel; assay type: in vivo, dog
From the text: (§1) This study was completed on mongrel canines.

prostate = test: BPH Preclinical Study 4: histology, clinical observation, urethra lumen diameter; assay type: in vivo, dog
From the text: as §1

[5] = BPH Preclinical Study 4: plasma paclitaxel concentration; assay type: in vivo, dog
From the text: as §1

[6] = Human clinical study, BPH: paclitaxel in blood, urine, semen; assay type: in vivo
albumin = settings: cited from earlier work

Compound: O=C(O)c1ccccc1 [benzoic acid]
stability under ethylene oxide sterilization, heating, and aging process [1]: not stable

Human plasma paclitaxel concentration ([2]; 1 hour, 3 hours, 5 hours, 10 hours, 24 hours, and 5 days): below the level of quantification
concentration at 14 days ([2]; human, semen): 2.5 ng/mL
concentration at 30 days ([2]; human, semen): 1 ng/mL
concentration at 5 days ([2]; human, urine, 5 days): 2.6 ng/mL
concentration at 14 days ([2]; human, urine): 0.3 ng/mL
concentration at 30 days ([2]; human, urine): 0.1 ng/mL
Human urine paclitaxel concentration, average ([2]; immediately post procedure): 184 ng/mL
Human plasma paclitaxel concentration, average ([2]; immediately post treatment): 0.1 ng/mL
prostate drug concentration, maximum dose arm versus standard dose ([4]; 28 days): 4.5 times
prostatic urethra drug concentration, maximum dose arm versus standard dose ([4]; 28 days): 11 times
prostate drug concentration, maximum dose arm versus standard dose ([4]; 70 days): 23 times
prostatic urethra drug concentration, maximum dose arm versus standard dose ([4]; 70 days): 23 times
average drug concentration, epididymis ([4]; lowest, immediately after treatment): 0.0017 µg/g
concentration at 28 days ([4]; male, mongrel, dog, prostate, other: transurethral drug-coated balloon catheter, 6.8 mg, standard dose arm, 28 days): 20 ng/g
concentration at 1 h ([4]; male, mongrel, dog, prostatic urethra, other: transurethral drug-coated balloon catheter, 6.8 mg): 28000 ng/g
concentration at 70 days ([4]; male, mongrel, dog, prostatic urethra, other: transurethral drug-coated balloon catheter, 6.8 mg, standard dose arm, 70 days): 4 ng/g
nonurethral close proximity tissue sample concentrations ([4]; most samples, 28 days and beyond): at or below the limit of quantification
clinical abnormalities (prostate; any animals, duration of the study): No significant clinical abnormalities
prostate histology (prostate; maximum dose animals, slower healing relative to standard dose and control): ongoing healing at 28 days
abnormalities or complications (prostate; maximum dose treatment arm using 19.6 mg of paclitaxel): no abnormalities or complications
plasma paclitaxel concentration ([5]; maximum dose, 12 hour and later): BLOQ
plasma paclitaxel concentration ([5]; standard dose, all time-points (1, 3, 7, 12 hours, 1, 3, 7, 14, and 28 days)): BLOQ
Human urine paclitaxel concentration, average ([6]; immediately post procedure): 598 ng/mL
Human plasma paclitaxel concentration, average ([6]; immediately post treatment): 0.2 ng/mL
concentration at 1 h ([6]; male, human, plasma, 2.4 μg of paclitaxel per millimeter squared, 1 hour): 0.2 ng/mL
concentration at 3 h ([6]; male, human, plasma, 2.4 μg of paclitaxel per millimeter squared, 3 hours): 0.1 ng/mL
concentration at 5 h ([6]; male, human, plasma, 2.4 μg of paclitaxel per millimeter squared, 5 hours): 0.1 ng/mL
concentration at 10 h ([6]; male, human, plasma, 2.4 μg of paclitaxel per millimeter squared, 10 hours): 0.07 ng/mL
concentration at 24 h ([6]; male, human, plasma, 2.4 μg of paclitaxel per millimeter squared, 24 hours): 0.03 ng/mL
concentration at 14 days ([6]; male, human, semen, 2.4 μg of paclitaxel per millimeter squared, 14 days): 5.3 ng/mL
concentration at 4 days ([6]; male, human, urine, 2.4 μg of paclitaxel per millimeter squared, 4 days): 202 ng/mL
concentration at 30 days ([6]; male, human, urine, 2.4 μg of paclitaxel per millimeter squared, 30 days): 5.1 ng/mL
Compound: CC(=O)O[C@H]1C(=O)[C@@]2(C)[C@H]([C@H](OC(=O)c3ccccc3)[C@]3(O)C[C@H](OC(=O)[C@H](O)[C@@H](NC(=O)c4ccccc4)c4ccccc4)C(C)=C1C3(C)C)[C@]1(OC(C)=O)CO[C@@H]1C[C@@H]2O [paclitaxel]
increase of solubility in PBS [3]: over 20 fold

Compound: CO[C@H]1C[C@@H]2CC[C@@H](C)[C@@](O)(O2)C(=O)C(=O)N2CCCC[C@H]2C(=O)O[C@H]([C@H](C)C[C@@H]2CC[C@@H](O)[C@H](OC)C2)CC(=O)[C@H](C)/C=C(\C)[C@@H](O)[C@@H](OC)C(=O)[C@H](C)C[C@H](C)/C=C/C=C/C=C/1C [rapamycin]
protein bound (albumin): 92%
share of protein binding that is to albumin (albumin; primarily to albumin): 97%
